Patent US20090047243A1, “COMBINATIONS FOR THE TREATMENT OF B-CELL PROLIFERATIVE DISORDERS” (priority 2007, published 2009)

Assays:
[1] = tested on: RPMI-8226, H929, MM.1S and MM.1R MM cell lines; test: Anti-proliferation assay, statements across MM cell lines; assay type: cell-based, human; details: RPMI-8226, H929, MM.1S and MM.1R MM cell lines
Experimental: The MM.1S, MM.1R, H929, MOLP-8, EJM, INA-6, ANBL6, KSM-12-PE, OPM2, and RPMI-8226 multiple myeloma cell lines, as well as the Burkitt's lymphoma cell line GA-10 and the non-Hodgkin's lymphoma cell lines Farage, SU-DHL6, and Karpas 422 were cultured at 37° C. and 5% CO2 in RPMI-1640 media supplemented with 10% FBS. ANBL6 and INA-6 culture media was also supplemented with 10 ng/ml IL-6. The OCI-ly10 cell line was cultured using RPMI-1640 media supplemented with 20% human serum. MM.1S, MM.1R, OCI-ly10, Karpas 422, and SU-DHL6 cells were provided by the Dana Farber Cancer Institute. H929, RPMI-8226, GA-10, and Farage cells were from ATCC (Cat #'s CCL-155, CRL-9068, CRL-2392 and CRL-2630 respectively). MOLP-8, EJM, KSM-12-PE, and OPM2 were from DSMZ. The ANBL6 and INA-6 cell lines were provided by the M. D. Anderson Cancer Research Center.
Compounds were prepared in DMSO at 1000× the highest desired concentration. Master plates were generated consisting of serially diluted compounds in 2- or 3-fold dilutions in 384-well format. For single agent dose response curves, the master plates consisted of 9 individual compounds at 12 concentrations in 2- or 3-fold dilutions. For combination matrices, master plates consisted of individual compounds at 6 or 9 concentrations at 2- or 3-fold dilutions.
Cells were added to 384-well plates 24 hours prior to compound addition such that each well contained 2000 cells in 35 μL of media. Master plates were diluted 100× (1 μL into 100 μL) into 384-well dilution plates containing only cell culture media. 4.5 μL from each dilution plate was added to each assay plate for a final dilution of 1000×. To obtain combination data, two master plates were diluted into the assay plates. Following compound addition, assay plates were kept at 37° C. and 5% CO2 for 72 hours. Thirty microliters of ATPLite (Perkin Elmer) at room temperature was then added to each well. Final amount of ATP was quantified within 30 minutes using ATPLite luminescent read-out on an Envision 2103 Multilabel Reader (Perkin Elmer). Measurements were taken at the top of the well using a luminescence aperture and a read time of 0.1 seconds per well.
The Loewe additivity model was used to quantify combination effects. Combinations were ranked initially by Additivity Excess Volume, which is defined as ADD Volume=ΣCX, CY (Idata−ILoewe). where ILoewe(CX, CY) is the inhibition that satisfies (CX/ECX)+(CY/ECY)=1, and ECX,Y are the effective concentrations at ILoewe for the single agent curves. A “Synergy Score” was also used, where the Synergy Score S=log fX log fY ΣIdata(Idata−ILoewe), summed over all non-single-agent concentration pairs, and where log fX,Y is the natural logarithm of the dilution factors used for each single agent. This effectively calculates a volume between the measured and Loewe additive response surfaces, weighted towards high inhibition and corrected for varying dilution factors. An uncertainty σS was calculated for each synergy score, based on the measured errors for the Idata values and standard error propagation.

patient CLL cells = test: Apoptosis assay (Hoechst 33342, flow cytometry, 48 h); assay type: cell-based, human; set-up: unit not given here
Source text: Blood samples were obtained in heparinized tubes with IRB-approved consent from flow cytometry-confirmed B-CLL patients that were either untreated or for whom at least 1 month had elapsed since chemotherapy. Patients with active infections or other serious medical conditions were not included in this study. Patients with white blood cell counts of less than 15,000/μl by automated analysis were excluded from this study. Whole blood was layered on Ficoll-Hystopaque (Sigma), and peripheral blood mononuclear cells (PBMC) isolated after centrification. […] One million cells were stained with anti-CD5-PE and anti-CD19-PE-Cy5 (Becton Dickenson, Franklin Lakes N.J.). The percentage of B-CLL cells was defined as the percentage of cells doubly expressing CD5 and CDl9, as determined by flow cytometry. […] Compound master plates were diluted 1:50 into complete media to create working compound dilutions. Compound crosses were then created by diluting two working dilution plates 1:10 into each plate of cells. […] Hoechst 33342 (Molecular Probes, Eugene Oreg.) at a final concentration of 0.25 μg/1 mL was added to each well, and the cells incubated at 37° C. for an additional ten minutes before being placed on ice until analysis. Plates were then analyzed on a LSR-II flow cytometer (Becton Dickenson, Franklin Lakes, N.J.) equipped with the High Throughput Sampling (HTS) option in high throughput mode. […] The apoptotic fraction was calculated using FlowJo software (Tree Star Inc., Ashland, Oreg.) after excluding debris by a FSC/SSC gate and subsequently gating for cells that accumulate the Hoechst dye.

OC[C@H]1O[C@@H](n2cnc3c(NC4CCCC4)nc(Cl)nc32)[C@H](O)[C@@H]1O [2-chloro-N-6-cyclopentyladenosine, 2-chloro-N^6-cyclopentyladenosine]
activity and synergy of adenosine receptor agonists [1]: active and synergistic

OC[C@H]1O[C@H](n2cnc3c(NC4CC5CCC4C5)ncnc32)[C@H](O)[C@@H]1O (stereo partly drawn) [(S)-ENBA, S-N^6-(2-endo-norbornyl)adenosine]
activity and synergy of adenosine receptor agonists [1]: active and synergistic

CCNC(=O)[C@H]1O[C@@H](n2cnc3c(N)nc(NCCc4ccc(CCC(=O)O)cc4)nc32)[C@H](O)[C@@H]1O [CGS-21680, 2-(4-(2-carboxyethyl)phenethylamino)-5′-N-ethylcarboxamidoadenosine]
Induction of apoptosis (patient CLL cells; CGS-21680 0.05 μM, Roflumilast 0 μM (Table 50)): 12 | Induction of apoptosis (patient CLL cells; CGS-21680 0.05 μM, Trequinsin 0 μM (Table 51)): 16 | Induction of apoptosis (patient CLL cells; CGS-21680 0.15 μM, Roflumilast 0 μM (Table 50)): 15 | Induction of apoptosis (patient CLL cells; CGS-21680 0.15 μM, Trequinsin 0 μM (Table 51)): 16 | Induction of apoptosis (patient CLL cells; CGS-21680 […], Roflumilast 0 μM (Table 50)): 25 | Induction of apoptosis (patient CLL cells; CGS-21680 […], Trequinsin 0 μM (Table 51)): 27

CNC(=O)[C@H]1O[C@@H](n2cnc3c(NCc4cccc(I)c4)ncnc32)[C@H](O)[C@@H]1O [IB-MECA, N^6-(3-iodobenzyl)-5′-N-methylcarboxamidoadenosine]
activity and synergy of adenosine receptor agonists [1]: active and synergistic

CNC(=O)[C@H]1O[C@@H](n2cnc3c(NCc4cccc(I)c4)nc(Cl)nc32)[C@H](O)[C@@H]1O [chloro-IB-MECA, 2-chloro-N^6-(3-iodobenzyl)-5′-N-methylcarboxamidoadenosine]
activity and synergy of adenosine receptor agonists [1]: active and synergistic
